Values joined by “and” are separate entries in the source; they are usually repeats but may differ in a detail not shown here. Equal values may be shown once. Toxic doses and inconclusive results are not listed.
System: CD2F1 mice, L1210 leukemia ip, survival T/C
Assay: NCI In Vivo Anticancer Drug Screen. Data for tumor model L1210 Leukemia (intraperitoneal) in CD2F1 (CDF1) mice
Details: higher = longer survival
In short: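 Mice carrying a transplanted tumor received test compound or vehicle alone. The value is the measurement in the treated group divided by that in the vehicle-treated control group.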

[1] = endpoint: mean survival time, dose: 25.0 mg/kg/injection, schedule: Q04DX003 (ip), vehicle: saline with Tween-80
[2] = endpoint: mean survival time, dose: 50.0 mg/kg/injection, schedule: Q04DX003 (ip), vehicle: saline with Tween-80
[3] = endpoint: mean survival time, dose: 100.0 mg/kg/injection, schedule: Q04DX003 (ip), vehicle: saline with Tween-80
[4] = endpoint: mean survival time, dose: 100.0 mg/kg/injection, schedule: Q04DX003 (ip), vehicle: saline
[5] = endpoint: mean survival time, dose: 200.0 mg/kg/injection, schedule: Q04DX003 (ip), vehicle: saline
[6] = endpoint: mean survival time, dose: 100.0 mg/kg/injection, schedule: Q01DX009 (ip), vehicle: saline with Tween-80
[7] = endpoint: mean survival time, dose: 200.0 mg/kg/injection, schedule: Q01DX009 (ip), vehicle: saline with Tween-80

With `O=C(OCC1OC(n2cnc3c(=S)nc[nH]c32)C(OC(=O)c2ccc([N+](=O)[O-])cc2)C1OC(=O)c1ccc([N+](=O)[O-])cc1)c1ccc([N+](=O)[O-])cc1` (stereo not given) the T/C (endpoint: mean survival time, dose: 132.0 mg/kg/injection, schedule: Q01DX009 (ip), vehicle: saline with Tween-80) was 157 % of control.

For `OC1c2ccccc2CCc2ccccc21`, the T/C [1] was 97 % of control, the T/C [2] was 103 % of control and the T/C [3] was 101 % of control.

In the case of `COc1cccc(CO)c1Oc1ccc(C)cc1`, the T/C (endpoint: mean survival time, dose: 100.0 mg/kg/injection, schedule: Q01DX001 (ip), vehicle: saline) is reported as 102 % of control, the T/C [4] is reported as 89 % of control and the T/C (endpoint: mean survival time, dose: 200.0 mg/kg/injection, schedule: Q01DX001 (ip), vehicle: saline) is reported as 105 % of control. The T/C [5] was 89 % of control, the T/C (endpoint: mean survival time, dose: 400.0 mg/kg/injection, schedule: Q01DX001 (ip), vehicle: saline) was 100 % of control and the T/C (endpoint: mean survival time, dose: 400.0 mg/kg/injection, schedule: Q04DX003 (ip), vehicle: saline) was 89 % of control.

For `COC(=O)/C=C(\C)C(=O)OC`, the T/C [6] was 100 % of control, the T/C [7] was 94 % of control and the T/C (endpoint: mean survival time, dose: 400.0 mg/kg/injection, schedule: Q01DX009 (ip), vehicle: saline with Tween-80) was 96 % of control.

`CC1(C)CCSC(/C=C/c2ccccc2)=N1` was tested, and the T/C (endpoint: mean survival time, dose: 100.0 mg/kg/injection, schedule: Q01DX009 (ip), vehicle: other) was 101 % of control, the T/C (endpoint: mean survival time, dose: 200.0 mg/kg/injection, schedule: Q01DX009 (ip), vehicle: other) was 117 % of control and the T/C (endpoint: mean survival time, dose: 400.0 mg/kg/injection, schedule: Q01DX009 (ip), vehicle: other) was 109 % of control.

`Cc1ccc(Oc2ccc([N+](=O)[O-])cc2)cc1` was tested, and the T/C (endpoint: mean survival time, dose: 50.0 mg/kg/injection, schedule: Q04DX003 (ip), vehicle: saline) was 101 % of control, the T/C [4] was 100 % of control and the T/C [5] was 94 % of control.

With `CCCCCOC(=O)COc1ccc(F)cc1F` the T/C (endpoint: mean survival time, dose: 100.0 mg/kg/injection, schedule: Q04DX002 (ip), vehicle: saline with Tween-80) was 101 % of control, the T/C (endpoint: mean survival time, dose: 200.0 mg/kg/injection, schedule: Q04DX002 (ip), vehicle: saline with Tween-80) was 105 % of control and the T/C (endpoint: mean survival time, dose: 400.0 mg/kg/injection, schedule: Q04DX002 (ip), vehicle: saline with Tween-80) was 90 % of control.

`O=C(O)c1cccc(C(=O)O)c1` was tested, and the T/C [3] was 95 % of control, the T/C (endpoint: mean survival time, dose: 200.0 mg/kg/injection, schedule: Q04DX003 (ip), vehicle: saline with Tween-80) was 102 % of control and the T/C (endpoint: mean survival time, dose: 400.0 mg/kg/injection, schedule: Q04DX003 (ip), vehicle: saline with Tween-80) was 102 % of control.

For `COc1cccc2c1C(CO)N1C(C#N)C3CC(C(=O)O)C(C1C2)N3C` (stereo not given), the T/C (endpoint: median survival time, dose: 3.12 mg/kg/injection, schedule: Q01DX005 (ip), vehicle: saline) was 112 % of control, the T/C (endpoint: median survival time, dose: 6.25 mg/kg/injection, schedule: Q01DX005 (ip), vehicle: saline) was 110 % of control and the T/C (endpoint: median survival time, dose: 9.0 mg/kg/injection, schedule: Q01DX005 (ip), vehicle: suspension in saline) was 120 % of control and 111 % of control. The T/C (endpoint: median survival time, dose: 12.5 mg/kg/injection, schedule: Q01DX005 (ip), vehicle: saline) was 112 % of control, the T/C (endpoint: median survival time, dose: 15.0 mg/kg/injection, schedule: Q01DX005 (ip), vehicle: suspension in saline) was 124 % of control and the T/C (endpoint: median survival time, dose: 41.67 mg/kg/injection, schedule: Q01DX005 (ip), vehicle: suspension in saline) was 87 % of control. The T/C (endpoint: median survival time, dose: 50.0 mg/kg/injection, schedule: Q01DX005 (ip), vehicle: saline) was 89 % of control.

`OCC1(OC2OC(CBr)C(O)C(O)C2O)OC(CBr)C(O)C1O` (stereo not given) was tested, and the T/C (endpoint: mean survival time, dose: 50.0 mg/kg/injection, schedule: Q01DX009 (ip), vehicle: saline with Tween-80) was 98 % of control, the T/C [6] was 91 % of control and the T/C [7] was 95 % of control.

For `COc1ccc(CCNCCc2ccc(OC)c(OC)c2)cc1OC`, the T/C (endpoint: mean survival time, dose: 12.5 mg/kg/injection, schedule: Q01DX009 (ip), vehicle: water) was 95 % of control, the T/C (endpoint: mean survival time, dose: 25.0 mg/kg/injection, schedule: Q01DX009 (ip), vehicle: water) was 100 % of control and the T/C (endpoint: mean survival time, dose: 50.0 mg/kg/injection, schedule: Q01DX009 (ip), vehicle: water) was 102 % of control. For the same compound, the T/C (endpoint: mean survival time, dose: 100.0 mg/kg/injection, schedule: Q01DX009 (ip), vehicle: water) was 104 % of control.

`COc1cc(NC(C)CCCN)c2ncccc2c1` (stereo not given) was tested, and the T/C (endpoint: mean survival time, dose: 12.5 mg/kg/injection, schedule: Q01DX009 (ip), vehicle: saline sonified) was 102 % of control, the T/C (endpoint: mean survival time, dose: 12.5 mg/kg/injection, schedule: Q04DX003 (ip), vehicle: saline with Tween-80) was 104 % of control and the T/C (endpoint: mean survival time, dose: 25.0 mg/kg/injection, schedule: Q01DX009 (ip), vehicle: saline sonified) was 97 % of control. For the same compound, the T/C [1] was 93 % of control, the T/C (endpoint: mean survival time, dose: 50.0 mg/kg/injection, schedule: Q01DX009 (ip), vehicle: saline sonified) was 102 % of control and the T/C [2] was 101 % of control.

From PubChem BioAssay AID256 (DTP/NCI, 2004)
